The subject of one data set is K562 cells. Put plainly: Cell viability of HIVGKO-infected K562 cells. Conditions: K562, increasing concentrations. Format: cell-based. The method, then: Briefly, K562 cells were treated with increasing concentrations of the FOXO1 inhibitor AS1842856 just after HIVGKO infection. After 3-4 days, the percentage of latent cells and productive cells were quantified by FACS. In left panel, amount of productive or latent cells relative to the total infection rate (bars) and cell viability (dots). In the right panel, ratios of productive versus latent populations upon increasing concentrations of AS1842856 treatments. Data are represented as mean f SD of triplicate values, representative of three independent experiments. FIG. 1, Panel B depicts FOXO1, FOXO3 and FOXO4 CETSA-melting curve shifts upon the presence or absence of AS1842856 1000 nM in K562 cells. Band intensities obtained from western blot analysis were related to the highest western blot signal which has been set to 100%. Relative FOXO-band intensities were plotted against corresponding incubation temperatures and a nonlinear least-squares regression fit was applied. Data represent the mean±SD of three individual experiments. FIG. 1, Panel C depicts the efficiency of FOXO1, FOXO3 and FOXO4 knockdowns with two different sgRNAs checked by western blot. Cells transduced with NC (negative control) sgRNA lentiviruses were used as a control. […]

The test system of data set [1] is latent HIVNL4-3 Luciferase reporter virus in primary CD4+ T cells. The experiment in a line: Luciferase reporter HIV reactivation in primary CD4+ T cells. Format: cell-based, HIV-1. Conditions: 6 days after infection, increasing concentrations.
Protocol: For reactivation of latent HIV-1 provirus, cells were counted and collected as pellets by centrifugation at 1500 rpm for 10 min. Cells were then plated in 96-well U-bottom plates at 1×10^6 per 200 μl in the presence of 30 μM Raltegravir (Santa Cruz Biotechnology) and the indicated activator. Cells were harvested 48 h after stimulation, washed one time with PBS, and lysed in 60 μl of Passive Lysis Buffer (Promega). After 15 min of lysis, the luciferase activity in cell extracts was quantified with a Perkin Elmer EnSpire 2300 Multimode plate reader after mixing 20 μl of lysate with 100 μl of substrate (Luciferase Assay System-Promega). Relative light units (RLU) were normalized to protein content determined by Bradford assay (BioRad). Data represent average (±SD) of three technical replicates per donor. Cell viability was measured with CellTiter-Blue Cell Viability Assay (Promega).
HIV reactivation was measured by luciferase activity and cell viability by flow cytometry.
A further data set deals with CD4+ T cells. In kind it is cell-based, human. The method, then: CD69 and CD25 expression was measured by flow cytometry gating on CD3^+CD4^+ T cells using FITC-labeled antibodies for CD3 (11-0048-42, eBioscience), APC-conjugated CD25 antibodies (17-0259-42, eBioscience), PerCP-labeled antibodies for CD4 (300528, Biolegend), and CD69-V450 (560740, BD Horizon). Staining was performed for 30 min on ice in FACS buffer (PBS, 2% FBS), and samples were analyzed on a BD Biosciences LSRII flow cytometer. Shown are the percentages of positive cells relative to total CD3^+ CD4^+ T cells or median fluorescence intensity (MFI).
FIG. 6, Panel A, the cell surface CD69 and CD25 T cell activation markers were measured by FACS in CD4^+ T cells upon AS1842856 treatment for 24, 48 and 72 h. 10 μg/mLαCD3 and 1 μg/mL αCD28 was used as control. Data is shown as percentage of positive cells and as mean±SD of two biological replicates. FIG. 6, Panel B, depicts the same as in FIG. 6, Panel A, but measuring FOXO1 target genes (IL7R, KLRG1, CD62L) after 48 h of AS1842856 treatment (n=3). […]. Cells were allowed to rest for 6 days before 72 h reactivation was induced with PHA/IL-2 and 10 μg/mL αCD3 and 1 μg/mLαCD28. Data are mean±SEM of at least 3 individual donors. Data represent average SD of 9-13 independent experiments. […] Cell viability was assessed by Trypan Blue exclusion.

For data set [2], the system named is HIV latency establishment (HIVGKO) in primary CD4+ T cells. Put plainly: HIVGKO latency establishment in primary resting CD4+ T cells. In kind it is cell-based, HIV-1. Particulars: increasing doses, 72 hours.

As to `CCn1cc(C(=O)O)c(=O)c2c(N)c(F)c(NC3CCCCC3)cc21` [AS1842856, 5-amino-7-(cyclohexylamino)-1-ethyl-6-fluoro-4-oxo-1,4-dihydro-quinoline-3-carboxylic acid], the viability entry in the data set with K562 cells was “no significant changes”. Besides, the “luciferase expression (HIV reactivation)” value in data set [1] is listed as “reactivated luciferase expression”. Further, the “generalized T cell activation (CD69 and CD25 expression)” value in the data set with CD4+ T cells is “not observed”. Also, the “productive infection and establishment of latency” value in data set [2] is “promoted productive infection and decreased the establishment of latency”.

The values above are taken from patent US20220193209A1, “COMPOSITIONS AND METHODS FOR REACTIVATING LATENT IMMUNODEFICIENCY VIRUS AND/OR TREATING IMMUNODEFICIENCY VIRUS INFECTION” (The J. David Gladstone institutes, a testamentary trust …, priority 2019, published 2022).
